Data: BindingDB's records for doi:10.1016/j.bmcl.2019.01.031 (Merck, 2019)

How the values were obtained:
[1] = Inhibition of NS5A in HCV genotype 1a assessed as decrease in viral replication
[2] = Inhibition of NS5A in HCV genotype 1b assessed as decrease in viral replication
[3] = Inhibition of NS5A in HCV genotype 3a assessed as decrease in viral replication
[4] = Inhibition of NS5A in HCV genotype 2b assessed as decrease in viral replication
[5] = Inhibition of NS5A in HCV genotype 4a assessed as decrease in viral replication
[6] = Inhibition of NS5A Y93H mutant in HCV genotype 1a assessed as decrease in viral replication
[7] = Inhibition of NS5A L31V mutant in HCV genotype 1a assessed as decrease in viral replication
[8] = Inhibition of NS5A in HCV genotype 2a assessed as decrease in viral replication

| Structure (SMILES) | EC50 [1] | EC50 [2] | EC50 [3] | EC50 [4] | EC50 [5] | EC50 [6] | EC50 [7] | EC50 [8] |
| --- | --- | --- | --- | --- | --- | --- | --- | --- |
| COC(=O)N[C@H](C(=O)N1CCC[C@H]1c1ncc(-c2ccc3c(c2)Oc2ccc4cc(-c5cnc([C@@H]6CCCN6C[C@@H](NC(=O)OC)C6CCOCC6)[nH]5)ccc4c2[C@H]3C)[nH]1)C1CCOCC1 | 0.004 nM | 0.004 nM | 0.04 nM | 0.02 nM | 0.009 nM | 0.4 nM | 0.03 nM |  |
| CCC1c2ccc(-c3cnc([C@@H]4CCCN4C(=O)[C@@H](NC(=O)OC)C(C)C)[nH]3)cc2Oc2ccc(-c3cnc([C@@H]4CCCN4C(=O)[C@@H](NC(=O)OC)C(C)C)[nH]3)cc21 (some centres not stated) | 0.02 nM | 0.004 nM | 0.07 nM |  |  | 24 nM |  | 0.005 nM |
| COC(=O)N[C@H](C(=O)N1CCC[C@H]1c1nc(-c2ccc3c(c2)O[C@@H](c2ccccc2)n2c-3cc3cc(-c4c[nH]c([C@@H]5CCCN5C(=O)[C@@H](NC(=O)OC)C(C)C)n4)ccc32)c[nH]1)C(C)C [Elbasvir] | 0.004 nM | 0.003 nM | 0.02 nM |  |  |  |  | 0.003 nM |
| COC(=O)N[C@H](C(=O)N1CCC[C@H]1c1ncc(-c2ccc3c(c2)Oc2ccc4cc(-c5cnc([C@@H]6CCCN6C[C@@H](NC(=O)OC)C6CCOCC6)[nH]5)ccc4c2C3(C)C)[nH]1)C1CCOCC1 | 0.002 nM | 0.004 nM | 0.08 nM | 0.3 nM | 0.006 nM | 0.7 nM |  |  |
| COC(=O)N[C@H](C(=O)N1C[C@H](F)C[C@H]1c1ncc(-c2ccc3c(ccc4oc5cc(-c6cnc([C@@H]7C[C@@H](F)CN7C(=O)[C@@H](NC(=O)OC)C(C)C)[nH]6)ccc5c(=O)c43)c2)[nH]1)C(C)C | 0.029 nM | 0.0045 nM | > 1 nM | 90 nM |  | 1.2 nM |  |  |
| CC[C@H]1c2ccc(-c3cnc([C@@H]4CCCN4C(=O)[C@@H](NC(=O)OC)C(C)C)[nH]3)cc2Oc2ccc3cc(-c4cnc([C@@H]5CCCN5C(=O)[C@@H](NC(=O)OC)C(C)C)[nH]4)ccc3c21 | 0.005 nM |  | 1.1 nM | 0.78 nM |  | 12 nM |  |  |
| CC[C@@H]1c2ccc(-c3cnc([C@@H]4CCCN4C(=O)[C@@H](NC(=O)OC)C4CCOCC4)[nH]3)cc2Oc2ccc3cc(-c4cnc([C@@H]5CCCN5C[C@@H](NC(=O)OC)C5CCOCC5)[nH]4)ccc3c21 | 0.01 nM | 0.004 nM | 0.2 nM | 0.3 nM | 0.01 nM | 0.8 nM |  |  |
| CCC1(CC)c2ccc(-c3cnc([C@@H]4CCCN4C(=O)[C@@H](NC(=O)OC)C(C)C)[nH]3)cc2Oc2ccc3cc(-c4cnc([C@@H]5CCCN5C(=O)[C@@H](NC(=O)OC)C(C)C)[nH]4)ccc3c21 | 0.002 nM |  | 0.58 nM | 3.3 nM |  | 4.1 nM |  |  |
| COC(=O)N[C@H](C(=O)N1CCC[C@H]1c1ncc(-c2ccc3c(c2)Oc2ccc4cc(-c5cnc([C@@H]6CCCN6C[C@@H](NC(=O)OC)C6CCOCC6)[nH]5)ccc4c2[C@@H]3C)[nH]1)C1CCOCC1 | 0.005 nM | 0.006 nM | 0.06 nM | 0.5 nM | 0.004 nM | 0.5 nM | 0.03 nM |  |
| CC[C@@H]1c2ccc(-c3cnc([C@@H]4CCCN4C(=O)[C@@H](NC(=O)OC)C(C)C)[nH]3)cc2Oc2ccc3cc(-c4cnc([C@@H]5CCCN5C(=O)[C@@H](NC(=O)OC)C(C)C)[nH]4)ccc3c21 | 0.0027 nM |  | 1.7 nM | 13 nM |  | 15 nM |  |  |
| COC(=O)N[C@H](C(=O)N1C[C@H](F)C[C@H]1c1ncc(-c2ccc3c(ccc4oc5cc(-c6cnc([C@@H]7C[C@@H](F)CN7C(=O)[C@@H](NC(=O)OC)C7CCOCC7)[nH]6)ccc5c(=O)c43)c2)[nH]1)C1CCOCC1 | 0.084 nM |  | 5.8 nM | 3.5 nM |  | 0.18 nM |  |  |
| COC(=O)N[C@H](C(=O)N1CCC[C@H]1c1ncc(-c2ccc3c(ccc4oc5cc(-c6cnc([C@@H]7CCCN7C(=O)[C@@H](NC(=O)OC)C7CCOCC7)[nH]6)ccc5c(=O)c43)c2)[nH]1)C1CCOCC1 | 0.041 nM |  | 0.72 nM | 0.48 nM |  | 2 nM |  |  |
| COC(=O)N[C@H](C(=O)N1CCC[C@H]1c1ncc(-c2ccc3c(c2)Oc2ccc4cc(-c5cnc([C@@H]6CCCN6C(=O)[C@@H](NC(=O)OC)C(C)C)[nH]5)ccc4c2C3(C)C)[nH]1)C(C)C | 0.0029 nM |  |  | 11 nM |  | 18 nM |  |  |
| CCC1(CC)c2ccc(-c3cnc([C@@H]4CCCN4C(=O)[C@@H](NC(=O)OC)C(C)C)[nH]3)cc2Oc2cc3ccc(-c4cnc([C@@H]5CCCN5C(=O)[C@@H](NC(=O)OC)C(C)C)[nH]4)cc3cc21 | 0.002 nM |  | 1.1 nM | 4.5 nM |  | 3.3 nM |  |  |
| COC(=O)N[C@H](C(=O)N1CCC[C@H]1c1ncc(-c2ccc3c(c2)C(C)c2ccc4cc(-c5cnc([C@@H]6CCCN6C(=O)[C@@H](NC(=O)OC)C(C)C)[nH]5)ccc4c2O3)[nH]1)C(C)C (some centres not stated) | 0.0057 nM |  |  |  |  | 49 nM |  |  |
| COC(=O)N[C@H](C(=O)N1CCC[C@H]1c1ncc(-c2ccc3c(ccc4c(=O)c5cc(-c6cnc([C@@H]7CCCN7C(=O)[C@@H](NC(=O)OC)C(C)C)[nH]6)ccc5oc43)c2)[nH]1)C(C)C | 0.02 nM |  |  |  |  | 66 nM |  |  |
| COC(=O)N[C@H](C(=O)N1CCC[C@H]1c1ncc(-c2ccc3c(c2)Oc2ccc4cc(-c5cnc([C@@H]6CCCN6C(=O)[C@@H](NC(=O)OC)C(C)C)[nH]5)ccc4c2[C@H]3C)[nH]1)C(C)C | 0.0022 nM | 0.0016 nM | 0.72 nM | 1.9 nM |  | 7.2 nM |  |  |
| COC(=O)N[C@H](C(=O)N1CCC[C@H]1c1ncc(-c2ccc3c(F)c4oc5ccc(-c6cnc([C@@H]7CCCN7C(=O)[C@@H](NC(=O)OC)C(C)C)[nH]6)cc5c(=O)c4cc3c2)[nH]1)C(C)C | > 1 nM | > 1 nM | > 1 nM | > 100 nM |  | > 100 nM |  |  |
| COC(=O)N[C@H](C(=O)N1CCC[C@H]1c1ncc(-c2ccc3c(ccc4oc5ccc(-c6cnc([C@@H]7CCCN7C(=O)[C@@H](NC(=O)OC)C(C)C)[nH]6)cc5c(=O)c43)c2)[nH]1)C(C)C | 0.2 nM | 0.1 nM | > 1 nM | > 100 nM |  | > 100 nM |  |  |
| CCN(CC)[C@@H](C(=O)N1C[C@H](F)C[C@H]1c1ncc(-c2ccc3c(ccc4oc5cc(-c6cnc([C@@H]7C[C@@H](F)CN7C(=O)[C@@H](c7ccccc7)N(CC)CC)[nH]6)ccc5c(=O)c43)c2)[nH]1)c1ccccc1 | 0.31 nM |  | 0.026 nM | 797 nM |  | 506 nM |  |  |
| COC(=O)N[C@H](C(=O)N1CCC[C@H]1c1ncc(-c2ccc3c(=O)c4cc(-c5cnc([C@@H]6CCCN6C(=O)[C@@H](NC(=O)OC)C(C)C)[nH]5)ccc4oc3c2)[nH]1)C(C)C | 0.01 nM | 0.002 nM |  |  |  | 1730 nM |  | 0.1 nM |
| CC[C@H]1c2ccc(-c3cnc([C@@H]4CCCN4C(=O)[C@@H](NC(=O)OC)C4CCOCC4)[nH]3)cc2Oc2ccc3cc(-c4cnc([C@@H]5CCCN5C[C@@H](NC(=O)OC)C5CCOCC5)[nH]4)ccc3c21 | 0.004 nM |  | 0.03 nM |  |  | 0.2 nM |  |  |
| COC(=O)N[C@H](C(=O)N1CCC[C@H]1c1ncc(-c2ccc3c(c2)Oc2ccc4cc(-c5cnc([C@@H]6CCCN6C(=O)[C@@H](NC(=O)OC)C(C)C)[nH]5)ccc4c2[C@@H]3C)[nH]1)C(C)C | 0.0046 nM | 0.0036 nM | 1.4 nM | 37 nM |  | 11 nM |  |  |
| COC(=O)N[C@H](C(=O)N1CCC[C@H]1c1ncc(-c2ccc3c(ccc4oc5cc(-c6cnc([C@@H]7CCCN7C(=O)[C@@H](NC(=O)OC)C(C)C)[nH]6)ccc5c(=O)c43)c2)[nH]1)C(C)C | 0.003 nM | 0.003 nM | > 1 nM | 14 nM |  | 18 nM |  |  |
